Results on eleven compounds are retold here after ChEMBL document CHEMBL1201862, “PubChem BioAssay data set” (2004).

Molecules are shown by their SMILES.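 96-well plates; 48 h exposure; 5 concentrations. Endpoints by linear interpolation between flanking doses. Not reached: highest tested concentration assigned. GI50 is the concentration that inhibits growth by half.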 The source made the active and inactive calls. No stated cut-off is given here; in the data, active = GI50 up to about 1.1 µM and inactive = higher.

Among the test systems are CAKI-1; DU-145; HCT-15; HT-29; Hs-578T; KM12; M14; MCF7; MDA-MB-435; Malme-3M; NCI-H460; OVCAR-3; OVCAR-8; SNB-19; SR; T47D; UACC-62; ACHN; TK-10.
Assay in all cases: DTP human tumour cell line panel, 48 h

Usually GI50 stands for the concentration at which growth is held to half of that of the control. For the compound `COc1ccc(-c2nc(O)c3ccccc3n2)cc1OC`, the GI50 was > 100 µM (inactive) in the test on CAKI-1; > 100 µM (inactive) in the test on DU-145; 50 µM in the test on HCT-15; > 100 µM (inactive) in the test with HT-29; 29.2 µM (inactive) in the test with Hs-578T; > 100 µM (inactive) with KM12. Moreover, the GI50 in the test with M14, in the test with MCF7, in the test on MDA-MB-435, in the test with Malme-3M, with NCI-H460 and in the test with OVCAR-3 was > 100 µM (inactive) in each case. For the same compound, the GI50 with OVCAR-8 was 24.4 µM (inactive); in the test with SNB-19 it was 31.2 µM (inactive); in the test with SR it was > 100 µM (inactive); in the test with T47D it was 30.3 µM (inactive); with UACC-62, > 100 µM (inactive).
In the case of `OC(C#Cc1ccccc1)(c1ccccc1)c1ccccc1`, the GI50 in the test with ACHN was 39 µM (inactive); with CAKI-1, 22.4 µM (inactive); in the test with DU-145 it was 30.1 µM (inactive); in the test on HCT-15, 39.5 µM; in the test with HT-29 it was 26.7 µM (inactive); in the test with Hs-578T it was 54.8 µM (inactive). Moreover, the GI50 with KM12 was 28 µM (inactive); with M14, > 100 µM (inactive); in the test on MCF7, 24 µM (inactive); in the test on MDA-MB-435 it was 24.3 µM (inactive); in the test with Malme-3M, 24.2 µM (inactive); with NCI-H460, 20.9 µM (inactive). The GI50 with OVCAR-3 was 26.7 µM (inactive); with OVCAR-8, 63.5 µM (inactive); with SNB-19 it was 70.6 µM (inactive); with SR it was 37.4 µM (inactive); in the test on T47D, 18.9 µM (inactive); with TK-10, 31 µM (inactive). Further, the GI50 in the test on UACC-62 is 35.4 µM (inactive).
In the case of `COc1nc(C#CCCCC#N)nc(OC)n1`, the GI50 is 8.93 µM (inactive) in the test with ACHN; 12.8 µM (inactive) in the test with CAKI-1; 8.93 µM (inactive) in the test with DU-145; 3.29 µM in the test on HCT-15; 24.3 µM (inactive) with HT-29; 40.8 µM (inactive) with Hs-578T. Further, the GI50 is 16.9 µM (inactive) in the test with KM12; 22.2 µM (inactive) in the test on M14; 5.27 µM (inactive) with MCF7; 10.4 µM (inactive) in the test with MDA-MB-435; 13.4 µM (inactive) in the test with Malme-3M; 26.3 µM (inactive) with NCI-H460. Moreover, the GI50 is 13.3 µM (inactive) with OVCAR-3; 21.2 µM (inactive) in the test on OVCAR-8; 77.3 µM (inactive) in the test with SNB-19; 7.38 µM (inactive) with SR; 35.4 µM (inactive) in the test on T47D; 21.6 µM (inactive) with TK-10. For the same compound, in the test on UACC-62, the GI50 was 9.62 µM (inactive).
In the case of `Cc1cc(-c2nc3cc(F)ccc3s2)ccc1NC(=O)C(C)N` (centres undefined), the GI50 with ACHN was 3.73 µM (inactive); in the test with CAKI-1, 3.28 µM (inactive); in the test on DU-145, 4.42 µM (inactive); in the test with HCT-15 it was 2.65 µM; in the test on HT-29, 4.12 µM (inactive); in the test on Hs-578T, 4.95 µM (inactive). Moreover, the GI50 with KM12 is 3.94 µM (inactive); in the test on M14 it was 4.93 µM (inactive); with MCF7, 0.0258 µM (active); in the test on MDA-MB-435 it was 4.81 µM (inactive); in the test with Malme-3M, 15.2 µM (inactive); in the test with NCI-H460, 0.955 µM (active). In addition, the GI50 was 3.41 µM (inactive) in the test on OVCAR-3; 4.54 µM (inactive) with OVCAR-8; 4.72 µM (inactive) in the test on SNB-19; 0.351 µM (active) in the test with SR; 0.0847 µM (active) with T47D; 0.0501 µM (active) in the test on TK-10. Also, the GI50 in the test with UACC-62 was 4.02 µM (inactive).
As for `Clc1cc(Cl)cc(/N=C/C=C/Nc2cc(Cl)cc(Cl)c2)c1`, the GI50 in the test with ACHN was 20.1 µM (inactive); in the test on CAKI-1, 15.2 µM (inactive); in the test on DU-145, 21 µM (inactive); in the test with HCT-15 it was 14.9 µM; in the test with HT-29, 14.7 µM (inactive); in the test on Hs-578T, 19.1 µM (inactive). The GI50 with KM12 was 16.2 µM (inactive); in the test with M14 it was 22.3 µM (inactive); with MCF7, 13.4 µM (inactive); in the test on MDA-MB-435 it was 18.6 µM (inactive); in the test with Malme-3M it was 30.5 µM (inactive); in the test on NCI-H460 it was 19.1 µM (inactive). Besides, the GI50 in the test on OVCAR-3 was 13.7 µM (inactive); in the test on OVCAR-8 it was 20.4 µM (inactive); in the test with SNB-19 it was 21.4 µM (inactive); in the test with SR, 31.8 µM (inactive); with T47D, 22.9 µM (inactive); in the test on TK-10, 29.9 µM (inactive). Moreover, the GI50 in the test with UACC-62 was 19.7 µM (inactive).
Regarding `CCCCCCCCCCCCCC1=C(O)C(=O)C(CC2=C(O)C(=O)C(CCCCCCCCCCCCC)=C(O)C2=O)=C(O)C1=O`, the GI50 with ACHN is 30.8 µM (inactive); in the test with CAKI-1, > 100 µM (inactive); with DU-145 it was > 100 µM (inactive); in the test on HT-29, > 100 µM (inactive); with Hs-578T, 36 µM (inactive); in the test on KM12 it was > 100 µM (inactive). Moreover, the GI50 in the test on M14 is > 100 µM (inactive); in the test on MCF7, > 100 µM (inactive); in the test on MDA-MB-435 it was > 10 µM (inactive); with Malme-3M, > 100 µM (inactive); with OVCAR-3, > 100 µM (inactive); in the test with OVCAR-8, > 100 µM (inactive). For the same compound, the GI50 in the test on SNB-19 is 27.9 µM (inactive); in the test on SR it was 54.1 µM (inactive); with T47D, > 100 µM (inactive); in the test on TK-10, 61.4 µM (inactive); in the test on UACC-62, > 100 µM (inactive).
Turning to `CCc1cc2c(c3c1CCCC3=O)CC1(C2)Cc2cc(CC)c3c(c2C1)C(=O)CCC3`, the GI50 in the test with ACHN was 66.4 µM (inactive); in the test with CAKI-1 it was 89.5 µM (inactive); in the test on DU-145, > 100 µM (inactive); in the test with HCT-15 it was more than 100 µM; in the test with HT-29, 76.2 µM (inactive); in the test on Hs-578T it was > 100 µM (inactive). The GI50 in the test with KM12 is 47.2 µM (inactive); in the test with M14 it was > 100 µM (inactive); in the test with MCF7, > 100 µM (inactive); with MDA-MB-435, 47.2 µM (inactive); in the test with Malme-3M, 25.3 µM (inactive); in the test on NCI-H460, 93.8 µM (inactive). Further, the GI50 was 86.3 µM (inactive) in the test on OVCAR-3; > 100 µM (inactive) in the test with OVCAR-8; > 100 µM (inactive) with SNB-19; 24.1 µM (inactive) in the test with SR; > 100 µM (inactive) in the test on T47D; > 100 µM (inactive) with TK-10.
On to `O=C(CCC(C(=O)OCc1ccccc1)C(=O)OCc1ccccc1)Nc1ccc(OCc2ccccc2)cc1`, for which the GI50 is > 100 µM (inactive) with ACHN; > 100 µM (inactive) in the test on CAKI-1; > 100 µM (inactive) with DU-145; 14 µM in the test with HCT-15; > 100 µM (inactive) in the test on HT-29; 52.7 µM (inactive) in the test on Hs-578T. Moreover, the GI50 in the test on KM12 is > 100 µM (inactive); with M14, > 100 µM (inactive); with MCF7 it was 13.2 µM (inactive); in the test with MDA-MB-435 it was 67.8 µM (inactive); in the test on Malme-3M, > 100 µM (inactive); in the test on NCI-H460, 59.4 µM (inactive). Besides, the GI50 was > 100 µM (inactive) in the test with OVCAR-3; 14.7 µM (inactive) in the test with OVCAR-8; 83.2 µM (inactive) in the test with SNB-19; 99.1 µM (inactive) with SR; 91.6 µM (inactive) in the test with T47D; 63.4 µM (inactive) with TK-10. In the test with UACC-62, the GI50 is > 100 µM (inactive).
As for `C[N+](C)(N)Cc1nc(-c2ccc(Cl)cc2)no1`, the GI50 is > 100 µM (inactive) with ACHN; > 100 µM (inactive) in the test on CAKI-1; > 100 µM (inactive) with DU-145; more than 100 µM in the test on HCT-15; > 100 µM (inactive) in the test with HT-29; > 100 µM (inactive) in the test with Hs-578T. The GI50 in the test with KM12, in the test on M14, in the test on MCF7, in the test on MDA-MB-435, in the test on Malme-3M and with NCI-H460 was > 100 µM (inactive) each time. For the same compound, the GI50 was > 100 µM (inactive) with OVCAR-3; > 100 µM (inactive) with OVCAR-8; > 100 µM (inactive) in the test with SNB-19; 26.8 µM (inactive) with SR; 22.9 µM (inactive) in the test with T47D; > 100 µM (inactive) in the test on TK-10. For the same compound, the GI50 in the test on UACC-62 is > 100 µM (inactive).
On to `CCC1C(NC(=O)OC)C(=O)N1[C@@H](C)c1ccccc1` (some centres undefined), for which the GI50 with ACHN was > 100 µM (inactive); in the test on CAKI-1, > 100 µM (inactive); in the test on DU-145, > 100 µM (inactive); with HCT-15, more than 100 µM; in the test on HT-29, > 100 µM (inactive); in the test with Hs-578T, > 100 µM (inactive). Also, the GI50 in the test on KM12, with M14, in the test with MCF7, in the test on MDA-MB-435, in the test on Malme-3M and in the test with NCI-H460 was > 100 µM (inactive) throughout. Further, the GI50 with OVCAR-3, in the test with OVCAR-8, with SNB-19, with SR, with T47D and in the test with TK-10 was > 100 µM (inactive) throughout. In the test on UACC-62, the GI50 is > 100 µM (inactive).
For the compound `C(#C[C@@]12CCC[C@@H]1NCO2)c1ccc2c(c1)OCO2`, the GI50 in the test on ACHN was 65 µM (inactive); in the test on CAKI-1 it was 67.1 µM (inactive); with DU-145, > 100 µM (inactive); in the test on HCT-15, 54.8 µM; in the test on HT-29, 32.2 µM (inactive); with Hs-578T, 37.8 µM (inactive). The GI50 is 69.7 µM (inactive) in the test on KM12; 24.7 µM (inactive) in the test with M14; 57.9 µM (inactive) in the test with MCF7; 61.1 µM (inactive) in the test on MDA-MB-435; 28.1 µM (inactive) in the test on Malme-3M; 50.9 µM (inactive) in the test on NCI-H460. For the same compound, the GI50 is 65.6 µM (inactive) in the test with OVCAR-3; 60.8 µM (inactive) in the test with OVCAR-8; > 100 µM (inactive) in the test with SNB-19; 36.8 µM (inactive) in the test on SR; 58.2 µM (inactive) in the test on T47D; 73.3 µM (inactive) in the test with TK-10. Moreover, the GI50 in the test with UACC-62 was 78.3 µM (inactive).
